Experimental data from PubChem BioAssay AID1963825 (Molecular Pharmacology Branch, DTP, NCI, 2024).

Assay: Anticancer human tumor 997537-175-T-J1-PDC patient-derived colon adenocarcinoma cell line growth inhibition [POLQ]
Settings: 997537-175-T-J1-PDC complex spheroid viability, combination with POLQ inhibitors; for IC50: curve of first compound; for viability, T/C: stronger effect = lower value
Experimental: Multicellular complex tumor spheroid response to Polymerase (POL) inhibitors (novobiocin, ART-558, RP6685) in combination with a variety of drugs and investigational agents in selected tumor cell lines
The POL inhibitors (novobiocin, ART-558, and RP6685) were evaluated both individually and in combination with standard of care and investigational anticancer small molecules within a complex spheroid model of solid tumors. . Complex spheroids include a stromal component modeled by human endothelial cells (HUVEC) and fibroblasts modeled by human mesenchymal stem cells (MSCs). The concentration ranges selected for each drug and investigational agent were based upon clinically achievable concentrations if the clinical Cmax of the agent was known.
Compounds. The drugs and investigational agents: novobiocin (NSC847541), ART-558 (NSC835418), RP-6685 (NSC848927), peposertib (NSC802822), ceralasertib (NSC780249), elimusertib (NSC800525), camonsertib (NSC841442), AZD-1390 (NSC803789), olaparib (NSC753686), talazoparib (NSC767125), rucaparib (NSC756644), sotorasib (NSC818433), MRTX-1133 (NSC836407), SN-38 (NSC673596), topotecan (NSC609699), epotoside (NSC141540), doxorubicin (NSC123127), gemcitabine (NSC613327), 5-fluorouracil (NSC19893), paclitaxel (NSC125973), vemurafenib (NSC761431), MSA-2 (NSC828583), SN-011 (NSC837082), adavosertib (NSC754352), prexasertib (NSC758257), carboplatin (NSC241240) and oxaliplatin (NSC266046), were obtained from the National Cancer Institute (NCI) Developmental Therapeutics Program Chemical Repository (21). The FDA-approved anticancer drug set is available from the Developmental Therapeutics Program at https://dtp.cancer.gov/organization/dscb/obtaining/. […] The stock solutions were prepared in dimethyl sulfoxide (DMSO, Sigma-Aldrich, St. Louis, MO, cat. D2650), except for the platinum compounds which were prepared in saline (Quality Biological, Gaithersburg, MD, cat. 114-055-101), at 800-fold the tested concentration and stored at -70 degrees C prior to their use. All drugs and investigational agents were tested over a range starting from a high concentration at or near the clinical Cmax and decreasing in half-log increments. If the clinical Cmax for an agent had not been determined, the highest concentration tested was 10 microM, except for SN-38, which was tested at a high concentration of 1 microM.
Cell Culture. All cells were maintained in an incubator at 37 degrees C and 5% CO2 with 95% humidity. The PDC lines were cultured according to standard operating procedures established by the NCI PDMR (https://pdmr.cancer.gov). Table 3 of the manuscript, lists the cell lines along with the number of the three cell types plated to form the mct-spheroids and media for tumor cell growth. After thawing, all PDC lines, except 997537-175-T-J1-PDC and 415267-285-R-J2-PDC, were cultured in Matrigel-coated flasks prepared with a working solution of 1X Ham's F-12 nutrient mix, without supplementation (Thermo Fisher Scientific, cat. 11765054), 100 U/mL penicillin-streptomycin (Thermo Fisher Scientific, cat. 15140122), and 2.5% Matrigel (Corning Inc., Corning, NY, cat. 354248) for the first three passages. The two PDC lines 997537-175-T-J1-PDC and 415267-285-R-J2-PDC were cultured on uncoated flasks. The 857933-349-R-J2-PDC line was cultured in 6C/Colon 1B media containing advanced DMEM/F-12 (Thermo Fisher Scientific, cat. 12634028), 10 mM HEPES (Thermo Fisher Scientific, cat. 15630080), 1X GlutaMAX supplement (Thermo Fisher Scientific, cat. 35050061), 0.1 mg/mL primocin (InvivoGen, San Diego, CA, cat. ant-pm-2), 10% defined fetal bovine serum, heat inactivated (HyClone Laboratories Inc., Logan, UT, cat. SH30070.03HI), 50% L-WRN conditioned media (ATCC, cat. CRL-3276), 1.25 mM N-Acetyl-L-cysteine (Sigma-Aldrich, cat. A9165), 10 mM nicotinamide (Sigma-Aldrich, cat. N0636), 1X B-27 supplement (Thermo Fisher Scientific, cat. 17504044), 1X N-2 supplement (Thermo Fisher Scientific, cat. […]

[1] = second compound 0.0316 µM, first compound 0.0316 µM
[2] = second compound 0.0316 µM, first compound 0.1 µM
[3] = second compound 0.0316 µM, first compound 0.316 µM
[4] = second compound 0.0316 µM, first compound 1 µM
[5] = second compound 0.0316 µM, first compound 3.16 µM
[6] = second compound 0.0316 µM, first compound 10 µM
[7] = second compound 0.1 µM, first compound 0.0316 µM
[8] = second compound 0.1 µM, first compound 0.1 µM
[9] = second compound 0.1 µM, first compound 0.316 µM
[10] = second compound 0.1 µM, first compound 1 µM
[11] = second compound 0.1 µM, first compound 3.16 µM
[12] = second compound 0.1 µM, first compound 10 µM
[13] = second compound 0.316 µM, first compound 0.0316 µM
[14] = second compound 0.316 µM, first compound 0.1 µM
[15] = second compound 0.316 µM, first compound 0.316 µM
[16] = second compound 0.316 µM, first compound 1 µM
[17] = second compound 0.316 µM, first compound 3.16 µM
[18] = second compound 0.316 µM, first compound 10 µM
[19] = second compound 1 µM, first compound 0.0316 µM
[20] = second compound 1 µM, first compound 0.1 µM
[21] = second compound 1 µM, first compound 0.316 µM
[22] = second compound 1 µM, first compound 1 µM
[23] = second compound 1 µM, first compound 3.16 µM
[24] = second compound 1 µM, first compound 10 µM
[25] = second compound 3.16 µM, first compound 0.0316 µM
[26] = second compound 3.16 µM, first compound 0.1 µM
[27] = second compound 3.16 µM, first compound 0.316 µM
[28] = second compound 3.16 µM, first compound 1 µM
[29] = second compound 3.16 µM, first compound 3.16 µM
[30] = second compound 3.16 µM, first compound 10 µM
[31] = second compound 10 µM, first compound 0.0316 µM
[32] = second compound 10 µM, first compound 0.1 µM
[33] = second compound 10 µM, first compound 0.316 µM
[34] = second compound 10 µM, first compound 1 µM
[35] = second compound 10 µM, first compound 3.16 µM
[36] = second compound 10 µM, first compound 10 µM
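Also: luminescence signal used as a surrogate for viable cells; spheroids exposed to drugs for seven days before readout.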

Q: What does the source list for `COc1cc(C2c3cc4c(cc3C(OC3OC5COC(C)OC5C(O)C3O)C3COC(=O)C23)OCO4)cc(OC)c1O` (centres undefined) + Cc1cccc(N(C)C(=O)C2C(O)CCN2c2nc(C)cc(C(F)(F)F)c2C#N)c1?
A: IC50 (second compound 0.0316 µM): > 10 µM; IC50 (second compound 0.1 µM): > 10 µM; IC50 (second compound 0.316 µM): > 10 µM; IC50 (second compound 1 µM): > 10 µM; IC50 (second compound 3.16 µM): > 10 µM; IC50 (second compound 10 µM): > 10 µM; viability, T/C [1]: 100%; viability, T/C [2]: 99.4%; viability, T/C [3]: 95.5%; viability, T/C [4]: 97.7%; viability, T/C [5]: 75.2%; viability, T/C [6]: 68.9%; viability, T/C [7]: 96.3%; viability, T/C [8]: 109%; viability, T/C [9]: 94.6%; viability, T/C [10]: 102%; viability, T/C [11]: 75.1%; viability, T/C [12]: 61.9%; viability, T/C [13]: 99.8%; viability, T/C [14]: 102%; viability, T/C [15]: 96.3%; viability, T/C [16]: 97.2%; viability, T/C [17]: 85%; viability, T/C [18]: 52.8%; viability, T/C [19]: 103%; viability, T/C [20]: 105%; viability, T/C [21]: 104%; viability, T/C [22]: 110%; viability, T/C [23]: 82%; viability, T/C [24]: 51.2%; viability, T/C [25]: 89.5%; viability, T/C [26]: 86.2%; viability, T/C [27]: 102%; viability, T/C [28]: 93.3%; viability, T/C [29]: 77.3%; viability, T/C [30]: 69.4%; viability, T/C [31]: 112%; viability, T/C [32]: 91.3%; viability, T/C [33]: 106%; viability, T/C [34]: 91.9%; viability, T/C [35]: 76.3%; viability, T/C [36]: 64.6%

Q: With `O=C(c1cc(Cc2n[nH]c(=O)c3ccccc23)ccc1F)N1CCN(C(=O)C2CC2)CC1` + Cc1cccc(N(C)C(=O)C2C(O)CCN2c2nc(C)cc(C(F)(F)F)c2C#N)c1 as the compound, how does the IC50 (second compound 0.0316 µM) read?
A: The IC50 was > 10 µM.

Q: What about the IC50 (second compound 0.1 µM) of the same compound?
A: The IC50 was > 10 µM.

Q: And the IC50 (second compound 0.316 µM)?
A: Its IC50 is > 10 µM.

Q: And the IC50 (second compound 1 µM)?
A: Its IC50 is > 10 µM.

Q: And the IC50 (second compound 3.16 µM)?
A: The IC50 was > 10 µM.

Q: And the IC50 (second compound 10 µM)?
A: Its IC50 is > 10 µM.

Q: What about the viability, T/C [1] of the same compound?
A: The viability, T/C was 107%.

Q: And the viability, T/C [2]?
A: The viability, T/C was 97.5%.

Q: What about the viability, T/C [3] of the same compound?
A: Its viability, T/C is 94.8%.

Q: And the viability, T/C [4]?
A: Its viability, T/C is 92.3%.

Q: And the viability, T/C [5]?
A: Its viability, T/C is 102%.

Q: And the viability, T/C [6]?
A: Its viability, T/C is 103%.

Q: What about the viability, T/C [7] of the same compound?
A: The viability, T/C was 91.9%.

Q: And the viability, T/C [8]?
A: The viability, T/C was 108%.

Q: And the viability, T/C [9]?
A: Its viability, T/C is 102%.

Q: What about the viability, T/C [10] of the same compound?
A: The viability, T/C was 105%.

Q: What about the viability, T/C [11] of the same compound?
A: The viability, T/C was 101%.

Q: And the viability, T/C [12]?
A: Its viability, T/C is 86.2%.

Q: What about the viability, T/C [13] of the same compound?
A: Its viability, T/C is 107%.

Q: And the viability, T/C [14]?
A: Its viability, T/C is 105%.

Q: And the viability, T/C [15]?
A: The viability, T/C was 109%.

Q: What about the viability, T/C [16] of the same compound?
A: The viability, T/C was 99%.

Q: And the viability, T/C [17]?
A: Its viability, T/C is 118%.

Q: What about the viability, T/C [18] of the same compound?
A: Its viability, T/C is 110%.

Q: And the viability, T/C [19]?
A: The viability, T/C was 99.1%.

Q: And the viability, T/C [20]?
A: The viability, T/C was 102%.

Q: What about the viability, T/C [21] of the same compound?
A: The viability, T/C was 109%.

Q: What about the viability, T/C [22] of the same compound?
A: Its viability, T/C is 97.1%.

Q: And the viability, T/C [23]?
A: Its viability, T/C is 100%.

Q: What about the viability, T/C [24] of the same compound?
A: The viability, T/C was 87.5%.

Q: What about the viability, T/C [25] of the same compound?
A: The viability, T/C was 101%.

Q: What about the viability, T/C [26] of the same compound?
A: Its viability, T/C is 108%.

Q: What about the viability, T/C [27] of the same compound?
A: Its viability, T/C is 92.2%.

Q: What about the viability, T/C [28] of the same compound?
A: Its viability, T/C is 92.1%.

Q: What about the viability, T/C [29] of the same compound?
A: The viability, T/C was 97.5%.

Q: And the viability, T/C [30]?
A: Its viability, T/C is 103%.

Q: And the viability, T/C [31]?
A: Its viability, T/C is 99.3%.

Q: And the viability, T/C [32]?
A: Its viability, T/C is 87.3%.

Q: And the viability, T/C [33]?
A: The viability, T/C was 91.1%.

Q: And the viability, T/C [34]?
A: The viability, T/C was 97%.

Q: What about the viability, T/C [35] of the same compound?
A: Its viability, T/C is 87.1%.

Q: And the viability, T/C [36]?
A: Its viability, T/C is 96.4%.
